Assay results from patent US12077503B2, “Substituted cyclic amides and their use as herbicides” (FMC CORPORATION, priority 2015, dated 2024).

Key:
Assay type in all cases: in vivo
Kochia (Kochia scoparia) [1] = experiment: Test A preemergence; conditions: Bassia scoparia, pre-emergence, 240 h, 0 to 100 scale where 0 is no effect and 100 is complete control, read-out: Kochia plant response rating
Summary of the method: (§1)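 In a loam soil and sand blend, planted seeds got a preemergence directed soil spray, and young plants at the one- to two-leaf stage, 2–10 cm high, got a postemergence application; ~10 d greenhouse hold; injury rated visually, 0 = none, 100 = complete control.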

[2] = tested on: barnyardgrass (Echinochloa crus-galli); experiment: Test A preemergence; conditions: Echinochloa crus-galli, pre-emergence, 240 h, 0 to 100 scale where 0 is no effect and 100 is complete control, read-out: Barnyardgrass plant response rating
Summary of the method: as §1

[3] = tested on: giant foxtail (Setaria faberii); experiment: Test A preemergence; conditions: Setaria faberi, pre-emergence, 240 h, 0 to 100 scale where 0 is no effect and 100 is complete control, read-out: Foxtail, Giant plant response rating
Summary of the method: as §1

[4] = tested on: pigweed (Amaranthus retroflexus); experiment: Test A preemergence; conditions: Amaranthus retroflexus, pre-emergence, 240 h, 0 to 100 scale where 0 is no effect and 100 is complete control, read-out: Pigweed plant response rating
[5] = tested on: ragweed (common ragweed, Ambrosia elatior); experiment: Test A preemergence; conditions: Ambrosia artemisiifolia, pre-emergence, 240 h, 0 to 100 scale where 0 is no effect and 100 is complete control, read-out: Ragweed plant response rating
Summary of the method: as §1

[6] = tested on: ryegrass, Italian (Italian ryegrass, Lolium multiflorum); experiment: Test A preemergence; conditions: Lolium multiflorum, pre-emergence, 240 h, 0 to 100 scale where 0 is no effect and 100 is complete control, read-out: Ryegrass, Italian plant response rating
Summary of the method: as §1

[7] = tested on: Galium (catchweed bedstraw, Galium aparine); experiment: Test A postemergence; conditions: Galium, post-emergence, 240 h, Postemergence, read-out: Galium plant response rating (0 to 100 scale)
Summary of the method: as §1

Kochia (Kochia scoparia) [8] = experiment: Test A postemergence; conditions: Bassia scoparia, post-emergence, 240 h, Postemergence, read-out: Kochia plant response rating (0 to 100 scale)
Summary of the method: as §1

[9] = tested on: barnyardgrass (Echinochloa crus-galli); experiment: Test A postemergence; conditions: Echinochloa crus-galli, post-emergence, 240 h, Postemergence
Summary of the method: as §1

[10] = tested on: blackgrass (Alopecurus myosuroides); experiment: Test A postemergence; conditions: Alopecurus myosuroides, post-emergence, 240 h, Postemergence, read-out: Blackgrass plant response rating (0 to 100 scale)
Summary of the method: as §1

corn (Zea mays) = experiment: Test A postemergence; conditions: Zea mays, post-emergence, 240 h, Postemergence, read-out: Corn plant response rating (0 to 100 scale)
Summary of the method: as §1

[11] = tested on: giant foxtail (Setaria faberii); experiment: Test A postemergence; conditions: Setaria faberi, post-emergence, 240 h, Postemergence, read-out: Foxtail, Giant plant response rating (0 to 100 scale)
Summary of the method: as §1

[12] = tested on: pigweed (Amaranthus retroflexus); experiment: Test A postemergence; conditions: Amaranthus retroflexus, post-emergence, 240 h, Postemergence, read-out: Pigweed plant response rating (0 to 100 scale)
Summary of the method: as §1

[13] = tested on: ragweed (common ragweed, Ambrosia elatior); experiment: Test A postemergence; conditions: Ambrosia artemisiifolia, post-emergence, 240 h, Postemergence, read-out: Ragweed plant response rating (0 to 100 scale)
Summary of the method: as §1

[14] = tested on: ryegrass, Italian (Italian ryegrass, Lolium multiflorum); experiment: Test A postemergence; conditions: Lolium multiflorum, post-emergence, 240 h, Postemergence, read-out: Ryegrass, Italian plant response rating (0 to 100 scale)
Summary of the method: as §1

[15] = tested on: wheat (Triticum aestivum); experiment: Test A postemergence; conditions: Triticum aestivum, post-emergence, 240 h, Postemergence, read-out: Wheat plant response rating (0 to 100 scale)
Summary of the method: as §1

[16] = tested on: barnyardgrass (Echinochloa crus-galli); experiment: Test B flooded paddy test; conditions: Echinochloa crus-galli, 250 g ai/ha, Flood; 0 to 100 scale where 0 is no effect and 100 is complete control; read-out: Barnyardgrass plant response rating
Summary of the method: (§2)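 2-leaf plants; pots flooded 3 cm over soil; cpd added to paddy water; depth held; greenhouse 13–15 d; visual rating vs controls, 0 = no effect, 100 = complete control.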

[17] = tested on: ducksalad (Heteranthera limosa); experiment: Test B flooded paddy test; conditions: Heteranthera limosa, 250 g ai/ha, Flood; 0 to 100 scale where 0 is no effect and 100 is complete control; read-out: Ducksalad plant response rating
Summary of the method: as §2

rice (Oryra sativa) = experiment: Test B flooded paddy test; conditions: Oryza sativa, 250 g ai/ha, Flood; 0 to 100 scale where 0 is no effect and 100 is complete control; read-out: Rice plant response rating
Summary of the method: as §2

[18] = tested on: sedge, umbrella (small-flower umbrella sedge, Cyperus difformis); experiment: Test B flooded paddy test; conditions: Cyperus difformis, 250 g ai/ha, Flood; 0 to 100 scale where 0 is no effect and 100 is complete control; read-out: Sedge, Umbrella plant response rating
Summary of the method: as §2

[19] = 125 g ai/ha, preemergence, visual injury rating, approximately 10 d
[20] = 125 g ai/ha, visual rating about 10 d after treatment
[21] = 31 g ai/ha, 0 is no effect, 100 is complete control

Q: Which pest or weed control at 31 g/ha (Kochia (Kochia scoparia) [1]; 31 g ai/ha, Preemergence) does the source give for O=C(Nc1cccc(F)c1F)[C@H]1C(=O)N(CC(F)F)C[C@@H]1c1cccc(C(F)(F)F)c1 [Compound 1296] here?
A: 0%

Q: What about the pest or weed control at 125 g/ha (Kochia (Kochia scoparia) [1]; [19]) of the same compound?
A: 0%

Q: And the pest or weed control at 31 g/ha ([2]; 31 g ai/ha, Preemergence)?
A: 20%

Q: And the pest or weed control at 125 g/ha [2, 19]?
A: 70%

Q: And the pest or weed control at 31 g/ha ([3]; 31 g ai/ha, Preemergence)?
A: 20%

Q: And the pest or weed control at 125 g/ha [3, 19]?
A: 60%

Q: And the pest or weed control at 31 g/ha ([4]; 31 g ai/ha, Preemergence)?
A: 0%

Q: What about the pest or weed control at 125 g/ha [4, 19] of the same compound?
A: 0%

Q: And the pest or weed control at 31 g/ha ([5]; 31 g ai/ha, Preemergence)?
A: 0%

Q: What about the pest or weed control at 125 g/ha [5, 19] of the same compound?
A: 0%

Q: What about the pest or weed control at 31 g/ha ([6]; 31 g ai/ha, Preemergence) of the same compound?
A: 0%

Q: And the pest or weed control at 125 g/ha [6, 19]?
A: 0%

Q: What about the pest or weed control at 125 g/ha [7, 20] of the same compound?
A: 0%

Q: And the pest or weed control at 31 g/ha [7, 21]?
A: 0%

Q: And the pest or weed control at 125 g/ha (Kochia (Kochia scoparia) [8]; [20])?
A: 0%

Q: And the pest or weed control at 31 g/ha (Kochia (Kochia scoparia) [8]; [21])?
A: 0%

Q: And the pest or weed control at 125 g/ha ([9]; 125 g ai/ha, visual rating about 10 d after treatment, read-out: Barnyardgrass plant response rating (0 to 100 scale, 0 no effect, 100 complete control))?
A: 30%

Q: What about the pest or weed control at 31 g/ha ([9]; 31 g ai/ha, 0 is no effect, 100 is complete control, read-out: Barnyardgrass plant response rating (0 to 100 scale)) of the same compound?
A: 0%

Q: And the pest or weed control at 125 g/ha [10, 20]?
A: 0%

Q: What about the pest or weed control at 31 g/ha [10, 21] of the same compound?
A: 0%

Q: What about the plant injury at 125 g/ha (corn (Zea mays); [20]) of the same compound?
A: 0%

Q: And the plant injury at 31 g/ha (corn (Zea mays); [21])?
A: 0%

Q: And the pest or weed control at 125 g/ha [11, 20]?
A: 30%

Q: What about the pest or weed control at 31 g/ha [11, 21] of the same compound?
A: 0%

Q: And the pest or weed control at 125 g/ha [12, 20]?
A: 0%

Q: And the pest or weed control at 31 g/ha [12, 21]?
A: 0%

Q: What about the pest or weed control at 125 g/ha [13, 20] of the same compound?
A: 0%

Q: And the pest or weed control at 31 g/ha [13, 21]?
A: 0%

Q: What about the pest or weed control at 125 g/ha [14, 20] of the same compound?
A: 0%

Q: What about the pest or weed control at 31 g/ha [14, 21] of the same compound?
A: 0%

Q: What about the plant injury at 125 g/ha [15, 20] of the same compound?
A: 0%

Q: And the plant injury at 31 g/ha [15, 21]?
A: 0%

Q: And the pest or weed control at 250 g/ha [16]?
A: 15%

Q: And the pest or weed control at 250 g/ha [17]?
A: 0%

Q: What about the pest or weed control at 250 g/ha (rice (Oryra sativa)) of the same compound?
A: 30%

Q: What about the pest or weed control at 250 g/ha [18] of the same compound?
A: 0%
